Laboratory results: patent publication US20240116985A1, “STAPLED PEPTIDES AND METHODS THEREOF” (priority 2020, published 2024)

Assay: CHI Log D procedure
Type: physicochemical
Conditions: pH 7.4

Compound	CHI Log D
CC(=O)N[C@@H](Cc1ccccc1)C(=O)N[C@@H](CC(=O)O)C(=O)N[C@@H](C)C(=O)N[C@]1(C)CCCCCCC=CCOC(=O)N2CC[C@@](C(=O)N[C@@H](Cc3ccccc3)C(=O)N[C@@H](Cc3c[nH]c4ccccc34)C(=O)N[C@@H](CCC(N)=O)C(N)=O)(C2)NC(=O)[C@H](C(C)C)NC(=O)[C@H](Cc2ccccc2)NC(=O)[C@H](C)NC(=O)[C@H](C)NC(=O)[C@H](Cc2cccnc2)NC(=O)[C@H](CC(=O)O)NC1=O (single isomer, unassigned) [I-10, Ac-Phe-Asp-Ala-R8-Asp-3PyrA-Ala-Ala-Phe-Val-PyrS-Phe-Trp-Gln-NH2]	1.661
CC(=O)N[C@@H](Cc1ccccc1)C(=O)N[C@@H](CC(=O)O)C(=O)N[C@@H](C)C(=O)N[C@]1(C)CCCCCCC=CCOC(=O)N2CC[C@@](C(=O)N[C@@H](Cc3ccccc3)C(=O)N[C@@H](Cc3c[nH]c4ccccc34)C(=O)N[C@@H](CCC(N)=O)C(N)=O)(C2)NC(=O)[C@H](C(C)C)NC(=O)[C@H](Cc2ccccc2)NC(=O)[C@H](C)NC(=O)[C@H](C)NC(=O)[C@H](CCC(=O)O)NC(=O)[C@H](CC(=O)O)NC1=O [I-4, Ac-Phe-Asp-Ala-R8-Asp-Glu-Ala-Ala-Phe-Val-PyrS-Phe-Trp-Gln-NH2]	1.353
CC(=O)N[C@@H](Cc1ccccc1)C(=O)N[C@@H](CC(=O)O)C(=O)N[C@@H](C)C(=O)N[C@]1(C)CCCCCCC=CCOC(=O)N2CC[C@@](C(=O)N[C@@H](Cc3ccccc3)C(=O)N[C@@H](Cc3c[nH]c4ccccc34)C(=O)N[C@@H](CCC(N)=O)C(N)=O)(C2)NC(=O)[C@H](C(C)C)NC(=O)[C@H](Cc2ccccc2)NC(=O)[C@H](C)NC(=O)[C@H](C)NC(=O)[C@H](Cc2ccc(-c3ccccc3)cc2)NC(=O)[C@H](CC(=O)O)NC1=O (single isomer, unassigned) [I-12, Ac-Phe-Asp-Ala-R8-Asp-Bip-Ala-Ala-Phe-Val-PyrS-Phe-Trp-Gln-NH2]	2.247
CC(=O)N1CCC[C@]12CC=CCCCC1(CCCC=CCCCCCC[C@@](C)(C(=O)N[C@@H](Cc3ccccc3)C(=O)N[C@@](C)(Cc3c[nH]c4ccccc34)C(=O)N[C@@H](CCC(N)=O)C(N)=O)NC(=O)[C@H](C(C)C)NC(=O)[C@H](Cc3ccccc3)NC(=O)[C@H](C)NC(=O)[C@H](C)NC(=O)[C@H](CCC(=O)O)NC(=O)[C@H](CC(=O)O)NC1=O)NC(=O)[C@H](C)NC(=O)[C@H](CC(=O)O)NC2=O (stereo partly drawn) [I-137, Ac-PL3-Asp-Ala-B5-Asp-Glu-Ala-Ala-Phe-Val-S8-Phe-aMeW-Gln-NH2]	2.174

Now from value to compound:

CHI Log D	Compound
1.27	CC[C@H](C)[C@H](NC(=O)[C@H](CC(=O)O)NC(C)=O)C(=O)N[C@]1(C)CCN(C)C(=O)OCC=CCCCCC[C@@](C)(C(=O)N[C@@H](Cc2ccccc2)C(=O)N[C@@H](Cc2c[nH]c3ccccc23)C(=O)N[C@@H](Cc2c[nH]cn2)C(N)=O)NC(=O)[C@H](CCC(N)=O)NC(=O)[C@H](Cc2ccccc2)NC(=O)[C@H](C)NC(=O)[C@H](C)NC(=O)[C@H](CC(=O)O)NC(=O)[C@H](CC(=O)O)NC1=O [I-149, Ac-Asp-Ile-RdN-Asp-Asp-Ala-Ala-Phe-Gln-S7-Phe-Trp-His-NH2]
1.219	CC(=O)N[C@@H](Cc1ccccc1)C(=O)N[C@@H](CC(=O)O)C(=O)N[C@@H](C)C(=O)N[C@]1(C)CCCN(C)C(=O)OCC=CCCCC[C@@](C)(C(=O)N[C@@H](Cc2ccccc2)C(=O)N[C@@H](Cc2c[nH]c3ccccc23)C(=O)N[C@@H](CCC(N)=O)C(N)=O)NC(=O)[C@H](C(C)C)NC(=O)[C@H](Cc2ccccc2)NC(=O)[C@H](C)NC(=O)[C@H](C)NC(=O)[C@H](CC(=O)O)NC(=O)[C@H](CC(=O)O)NC1=O [I-28, Ac-Phe-Asp-Ala-ReN-Asp-Asp-Ala-Ala-Phe-Val-S6-Phe-Trp-Gln-NH2]
1.29	CC(=O)N[C@@H](Cc1ccccc1)C(=O)N[C@@H](CC(=O)O)C(=O)N[C@@H](C)C(=O)N[C@]1(C)CCCCCCC=CCOC(=O)N2CC[C@@](C(=O)N[C@@H](Cc3ccccc3)C(=O)N[C@@H](Cc3c[nH]c4ccccc34)C(=O)N[C@@H](CCC(N)=O)C(N)=O)(C2)NC(=O)[C@H](CO)NC(=O)[C@H](Cc2ccccc2)NC(=O)[C@H](C)NC(=O)[C@H](C)NC(=O)[C@H](CC(=O)O)NC(=O)[C@H](CC(=O)O)NC1=O [I-163, Ac-Phe-Asp-Ala-R8-Asp-Asp-Ala-Ala-Phe-Ser-PyrS-Phe-Trp-Gln-NH2]
1.37	CC(=O)N[C@@H](Cc1ccccc1)C(=O)N[C@@H](CC(=O)O)C(=O)N[C@]1(C)CCCCCCC=CCCC[C@@](C)(C(=O)N[C@@H](C)C(=O)N[C@@H](Cc2ccccc2)C(=O)N[C@@H](Cc2c[nH]c3ccccc23)C(=O)N[C@@H](CCC(N)=O)C(N)=O)NC(=O)[C@H](Cc2ccccc2)NC(=O)[C@H](C)NC(=O)[C@H](C)NC(=O)[C@H](CC(=O)O)NC(=O)[C@H](CC(=O)O)NC(=O)[C@H](C)NC1=O (single isomer, unassigned) [I-48, Ac-Phe-Asp-R8-Ala-Asp-Asp-Ala-Ala-Phe-S5-Ala-Phe-Trp-Gln-NH2]

Same assay, conditions: pH 7.4, CHI Log D

Compound	chromatographic logD	logD
CC(=O)N[C@@H](Cc1ccccc1)C(=O)N[C@@H](CC(=O)O)C(=O)N[C@@H](C)C(=O)N[C@]1(C)CCCCCCC=CCOC(=O)N2CC[C@@](C(=O)N[C@@H](Cc3ccccc3)C(=O)N[C@@H](Cc3c[nH]c4ccccc34)C(=O)N[C@@H](CCC(N)=O)C(N)=O)(C2)NC(=O)[C@H](C(C)C)NC(=O)[C@H](Cc2ccccc2)NC(=O)[C@H](C)NC(=O)[C@H](C)NC(=O)[C@H](CC2CCCCC2)NC(=O)[C@H](CC(=O)O)NC1=O (single isomer, unassigned) [I-15, Ac-Phe-Asp-Ala-R8-Asp-Cha-Ala-Ala-Phe-Val-PyrS-Phe-Trp-Gln-NH2]	2.21	
CC(=O)N1CCC[C@]12CC=CCCCC1(CCCC=CCCCCCC[C@@](C)(C(=O)N[C@@H](Cc3ccccc3)C(=O)NC(Cc3cccc4cc(F)ccc34)C(=O)N[C@@H](CCC(N)=O)C(N)=O)NC(=O)[C@H](C(C)C)NC(=O)[C@H](Cc3ccccc3)NC(=O)[C@H](C)NC(=O)[C@H](C)NC(=O)[C@H](CCC(=O)O)NC(=O)[C@H](CC(=O)O)NC1=O)NC(=O)[C@H](C)NC(=O)[C@H](CC(=O)O)NC2=O (stereo partly drawn) [I-142, Ac-PL3-Asp-Ala-B5-Asp-Glu-Ala-Ala-Phe-Val-S8-Phe-6F1NapA-Gln-NH2]	2.18	
CC(=O)N1CCC[C@]12CC=CCCCC1(CCCC=CCCCCCC[C@@](C)(C(=O)N[C@@H](CCc3ccc(O)cc3)C(=O)N[C@@H](Cc3c[nH]c4ccccc34)C(=O)N[C@@H](CCC(N)=O)C(N)=O)NC(=O)[C@H](C(C)C)NC(=O)[C@H](Cc3ccccc3)NC(=O)[C@H](C)NC(=O)[C@H](C)NC(=O)[C@H](CC(=O)O)NC(=O)[C@H](CC(=O)O)NC1=O)NC(=O)[C@H](C)NC(=O)[C@H](CC(=O)O)NC2=O (stereo partly drawn) [I-269, Ac-PL3-Asp-Ala-B5-Asp-Asp-Ala-Ala-Phe-Val-S8-hTyr-Trp-Gln-NH2]	1.81	
CC(=O)N1CCC[C@]12CC=CCCCC1(CCCC=CCCCCCC[C@@](C)(C(=O)N[C@@H](Cc3ccsc3)C(=O)N[C@@H](Cc3csc4ccccc34)C(=O)N[C@@H](CCC(N)=O)C(=O)N[C@H](C)C(=O)N[C@@H](C)C(=O)N[C@@H](C)C(N)=O)NC(=O)[C@H](CC(N)=O)NC(=O)[C@H](Cc3ccccc3)NC(=O)[C@H](C)NC(=O)[C@H](C)NC(=O)[C@H](CC(=O)O)NC(=O)[C@H](CC(=O)O)NC1=O)NC(=O)[C@H](CC(C)(C)C)NC(=O)[C@H](CC(=O)O)NC2=O (stereo partly drawn) [I-875, Ac-PL3-Asp-Npg-B5-Asp-Asp-Ala-Ala-Phe-Asn-S8-3Thi-BztA-Gln-dAla-Ala]		2.21
CC(=O)N1CCC[C@]12CC=CCCCC1(CCCC=CCCCCCC[C@@](C)(C(=O)N[C@@H](Cc3ccccc3)C(=O)N[C@@H](Cc3c[nH]c4ccccc34)C(=O)N[C@@H](CCC(N)=O)C(N)=O)NC(=O)[C@H](C(C)C)NC(=O)[C@H](Cc3ccccc3)NC(=O)[C@H](C)NC(=O)[C@H](C)NC(=O)[C@H](CCC(=O)O)NC(=O)[C@H](CC(=O)O)NC1=O)NC(=O)[C@H](C)NC(=O)[C@H](Cc1cccc(F)c1)NC2=O (stereo partly drawn) [I-204, Ac-PL3-3FF-Ala-B5-Asp-Glu-Ala-Ala-Phe-Val-S8-Phe-Trp-Gln-NH2]	2.98	
CC(=O)N1CCC[C@]12CC=CCCCC1(CCCC=CCCCCCC[C@@](C)(C(=O)N[C@@H](Cc3ccccc3)C(=O)N[C@@H](Cc3c[nH]c4ccccc34)C(=O)N[C@@H](CCC(N)=O)C(N)=O)NC(=O)[C@H](C(C)C)NC(=O)[C@H](Cc3ccccc3)NC(=O)[C@H](C)NC(=O)[C@H](C)NC(=O)[C@H](Cc3ccc(-c4ccccc4)cc3)NC(=O)[C@H](CC(=O)O)NC1=O)NC(=O)[C@H](C)NC(=O)[C@H](CC(=O)O)NC2=O (stereo partly drawn) [I-235, Ac-PL3-Asp-Ala-B5-Asp-Bip-Ala-Ala-Phe-Val-S8-Phe-Trp-Gln-NH2]	3.2	

Next, values leading:

chromatographic logD	logD	Compound
0.84		CC(=O)N[C@@H](Cc1ccccc1)C(=O)N[C@@H](CC(=O)O)C(=O)N[C@@H](C)C(=O)N[C@]1(C)CCCCCCC=CCOC(=O)N2CC[C@@](C(=O)N[C@@H](CC(=O)O)C(=O)N[C@@H](Cc3c[nH]c4ccccc34)C(=O)N[C@@H](CCC(N)=O)C(N)=O)(C2)NC(=O)[C@H](C(C)C)NC(=O)[C@H](Cc2ccccc2)NC(=O)[C@H](C)NC(=O)[C@H](C)NC(=O)[C@H](CC(=O)O)NC(=O)[C@H](CC(=O)O)NC1=O (single isomer, unassigned) [I-122, Ac-Phe-Asp-Ala-R8-Asp-Asp-Ala-Ala-Phe-Val-PyrS-Asp-Trp-Gln-NH2]
1.24		CC(=O)N[C@@H](Cc1ccccc1)C(=O)N[C@@H](CC(=O)O)C(=O)N[C@@H](C)C(=O)N[C@]1(C)CCCCCCC=CCOC(=O)N2CC[C@@](C(=O)N[C@@H](Cc3ccccc3)C(=O)N[C@@H](Cc3c[nH]c4ccccc34)C(=O)N[C@@H](CCC(N)=O)C(N)=O)(C2)NC(=O)[C@H](C(C)C)NC(=O)[C@H](Cc2ccccn2)NC(=O)[C@H](C)NC(=O)[C@H](C)NC(=O)[C@H](CC(=O)O)NC(=O)[C@H](CC(=O)O)NC1=O [I-86, Ac-Phe-Asp-Ala-R8-Asp-Asp-Ala-Ala-2PyrA-Val-PyrS-Phe-Trp-Gln-NH2]
1.28		CC(=O)N[C@@H](Cc1ccccc1)C(=O)N[C@@H](CC(=O)O)C(=O)N[C@@H](C)C(=O)N[C@]1(C)CCCCCCC=CCOC(=O)N2CC[C@@](C(=O)N[C@@H](Cc3ccccc3)C(=O)N[C@@H](Cc3c[nH]c4ccccc34)C(=O)N[C@@H](CCC(N)=O)C(N)=O)(C2)NC(=O)[C@H](C(C)C)NC(=O)[C@H](Cc2cccc(F)c2)NC(=O)[C@H](C)NC(=O)[C@H](C)NC(=O)[C@H](CC(=O)O)NC(=O)[C@H](CC(=O)O)NC1=O [I-77, Ac-Phe-Asp-Ala-R8-Asp-Asp-Ala-Ala-3FF-Val-PyrS-Phe-Trp-Gln-NH2]
